Data reported in patent publication EP1247803A2, “Indolinone compounds suitable for modulation of protein kinases” (Sugen, Inc., priority 1996, dated 1998).

Experiments:
FLK-1 receptor = biological target: T1, FLK-1 receptor (Mus musculus, UniProt P35918); test: FLK-1 ELISA (kinase activity of the FLK-1 receptor in FLK-1/NIH3T3 cells, VEGF stimulated); type: cell-based
T1 construct: expressed in transfected cells; host or cells: NIH3T3 C7#3
Outline: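 FLK-1-expressing NIH3T3 C7#3 cells, starved overnight in 0.1% FBS medium, were treated with compounds at a 1:200 final dilution (0.5% DMSO) for 2 h at 37 °C, with VEGF stimulation. FLK-1 kinase activity was read by ELISA on anti-rabbit IgG plates using affinity-purified anti-FLK-1 antiserum.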

MET = MET biochemical kinase assay; parameters: species or system human; concentration or dose not given beside the values
Outline: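 Lysate-derived MET, or chimeric receptors, is immobilised on plates through an antibody to the human MET cytoplasmic region. Compounds are added along with kinase buffer supplying ATP and divalent metal ions, and receptor autophosphorylation is quantified by anti-phosphotyrosine ELISA.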

T1 sequence (P35918 20-1345): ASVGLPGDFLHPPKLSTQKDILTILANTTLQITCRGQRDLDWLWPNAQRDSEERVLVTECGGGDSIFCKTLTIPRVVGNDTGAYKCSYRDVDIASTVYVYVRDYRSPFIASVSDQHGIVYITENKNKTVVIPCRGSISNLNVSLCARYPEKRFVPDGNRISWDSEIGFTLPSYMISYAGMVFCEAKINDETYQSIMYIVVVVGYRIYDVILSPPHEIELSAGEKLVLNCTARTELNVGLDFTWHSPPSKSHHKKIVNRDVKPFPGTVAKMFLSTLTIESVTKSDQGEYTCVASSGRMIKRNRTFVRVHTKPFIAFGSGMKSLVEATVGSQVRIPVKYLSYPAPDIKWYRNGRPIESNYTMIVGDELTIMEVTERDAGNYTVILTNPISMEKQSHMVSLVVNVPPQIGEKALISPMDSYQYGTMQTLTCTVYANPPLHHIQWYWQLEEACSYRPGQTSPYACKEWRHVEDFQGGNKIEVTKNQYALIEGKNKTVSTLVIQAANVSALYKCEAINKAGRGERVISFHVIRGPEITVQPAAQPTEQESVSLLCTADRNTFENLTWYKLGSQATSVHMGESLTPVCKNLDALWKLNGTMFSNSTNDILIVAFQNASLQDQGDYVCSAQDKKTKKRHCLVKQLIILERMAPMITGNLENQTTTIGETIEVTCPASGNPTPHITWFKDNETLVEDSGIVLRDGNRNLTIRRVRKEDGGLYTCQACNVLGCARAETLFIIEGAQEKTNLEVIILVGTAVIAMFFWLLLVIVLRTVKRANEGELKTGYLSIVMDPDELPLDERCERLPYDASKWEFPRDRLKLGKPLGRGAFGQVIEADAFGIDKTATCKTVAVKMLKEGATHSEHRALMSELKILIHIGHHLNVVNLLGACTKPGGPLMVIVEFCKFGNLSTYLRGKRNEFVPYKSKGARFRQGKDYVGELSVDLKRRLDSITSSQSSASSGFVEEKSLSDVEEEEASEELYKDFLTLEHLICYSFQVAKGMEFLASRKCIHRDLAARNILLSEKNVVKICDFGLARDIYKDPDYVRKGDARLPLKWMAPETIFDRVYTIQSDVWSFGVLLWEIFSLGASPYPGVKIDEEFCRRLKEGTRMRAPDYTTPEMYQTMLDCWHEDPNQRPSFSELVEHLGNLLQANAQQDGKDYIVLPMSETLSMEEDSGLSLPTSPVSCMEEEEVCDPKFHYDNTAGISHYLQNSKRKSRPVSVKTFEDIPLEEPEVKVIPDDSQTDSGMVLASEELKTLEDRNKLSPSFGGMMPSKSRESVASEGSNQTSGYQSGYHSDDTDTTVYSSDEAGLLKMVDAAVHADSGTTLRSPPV

Row | SMILES | Fik Kinase %Inhibition (FLK-1 receptor) [%] | Met Kinase % Inhibition (MET) [%]
1 | CN(C)c1ccc(C=C2C(=O)Nc3ccc(CCCl)cc32)cc1 [10719/G08] | 3.2 | 39.4
2 | COc1ccc(C=C2C(=O)Nc3ccc(Br)c(C)c32)cc1OC [10720/C04] | 15.3 | 29.0
3 | CSc1ccc(C=C2C(=O)Nc3c(Br)cc(Br)cc32)s1 [10720/A07] | 6.6 | 57.2
4 | CCOc1cc(C=C2C(=O)Nc3ccc(I)cc32)ccc1O [10720/B09] | 10.1 | 57.4
5 | CCOc1cc(C=C2C(=O)Nc3c(Br)cc(Br)cc32)ccc1O [10720/A09] | 8.1 | 75.4
6 | CNS(=O)(=O)c1ccc2c(c1)C(=Cc1ccc(O)cc1)C(=O)N2 [10719/D07] | -123.5 | 41.5
7 | O=C1Nc2ccc(S(=O)(=O)N3CCOCC3)cc2C1=Cc1cccc([N+](=O)[O-])c1 [10719/F10] | 10.4 | 30.8
8 | CN(C)c1ccc(C=C2C(=O)Nc3ccc(S(=O)(=O)N4CCOCC4)cc32)cc1 [10719/F08] | 15.1 | 75.7
9 | O=C1Nc2c(Br)cc(Br)cc2C1=Cc1ccccc1O [10720/A05] | 8.0 | 43.4
10 | Cc1cc(O)cc(O)c1C=C1C(=O)Nc2ccc(Br)c(C)c21 [10720/C08] | 10.9 | 65.6
11 | O=C1Nc2ccc(I)cc2C1=Cc1ncc[nH]1 [10720/B11] | -20.3 | 42.1
12 | COc1ccc(C=C2C(=O)Nc3c(Br)cc(Br)cc32)cc1OC [10720/A04] | 12.3 | 62.3
13 | O=C1Nc2ccc(S(=O)(=O)Nc3ccc(C(F)(F)F)cc3)cc2C1=Cc1ccc(O)c(O)c1 [10719/E03] | 17.1 | 87.2
14 | Cc1ccc(C=C2C(=O)Nc3ccc(I)cc32)s1 [10717/B07] | -18.3 | 90.0
15 | COc1cc(OC)c(C=C2C(=O)Nc3ccc(S(=O)(=O)N4CCOCC4)cc32)c(OC)c1 [10719/F06] | 13.5 | -22.0
16 | CCOc1ccc(C=C2C(=O)Nc3ccc(S(=O)(=O)NC)cc32)cc1OC [10719/D02] | 9.7 | 27.5
17 | Cc1c(Br)ccc2c1C(=Cc1ccccc1)C(=O)N2 [10720/C06] | 12.2 | 36.7
18 | CCOc1ccccc1C=C1C(=O)Nc2ccc(Br)c(C)c21 [10717/C02] | 4.1 | 29.7
19 | CCOc1ccc(C=C2C(=O)Nc3ccc(S(=O)(=O)Nc4ccc(C(F)(F)F)cc4)cc32)cc1OC [10719/E02] | 26.1 | 35.7
20 | COc1ccc(C=C2C(=O)Nc3ccc(CCCl)cc32)c(OC)c1 [10719/G04] | 11.5 | -8.2
21 | O=C1Nc2ccc(I)cc2C1=Cc1c(F)cc(F)cc1F [10720/B02] | 6.5 | 38.8
22 | O=C1Nc2ccc(S(=O)(=O)N3CCOCC3)cc2C1=Cc1ccc(F)cc1C(F)(F)F [10719/F11] | 11.6 | 8.7
23 | COc1ccc(O)c(C=C2C(=O)Nc3ccc(Br)c(C)c32)c1 [10720/C10] | -21.1 | 62.6
24 | COc1ccc(O)c(C=C2C(=O)Nc3c(Br)cc(Br)cc32)c1 [10720/A10] | -5.2 | 68.4
25 | O=C1Nc2ccc(CCCl)cc2C1=Cc1ccc(F)cc1C(F)(F)F [10719/G11] | 6.9 | 24.0
26 | O=C1Nc2c(Br)cc(Br)cc2C1=Cc1c(F)cc(F)cc1F [10720/A02] | 4.7 | 45.2
